Reference: the supplement of paper PMC10307832

Legend:
Assay in all cases: relative viability (nuclei count vs DMSO), 5 days (fraction); higher = more cells survive
Bortezomib + Dasatinib = compound: CC(C)C[C@H](NC(=O)[C@H](Cc1ccccc1)NC(=O)c1cnccn1)B(O)O [Bortezomib] + Cc1nc(Nc2ncc(C(=O)Nc3c(C)cccc3Cl)s2)cc(N2CCN(CCO)CC2)n1 [Dasatinib] (partner 0.075 µM)
Method in brief: (§1)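 Each reported value is a median over duplicate plates. It expresses relative viability: treated-well nuclei count divided by vehicle-well nuclei count. Lung cancer cell lines in 1536-well plates were dosed by pin tool a day after seeding, alone with one drug or with a fixed anchor-drug dose plus five library-drug doses (not always all listed) in √10 steps, and nuclei were counted after 5 days.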

[1] = compound: CC1=CC(=NN1)NC2=CC(=NC(=N2)/C=C/C3=CC=CC=C3)N4CCN(CC4)C + CC(=O)c1c(C)c2cnc(Nc3ccc(N4CCNCC4)cn3)nc2n(C2CCCC2)c1=O [Palbociclib] (partner 0.5 µM)
Method in brief: as §1

[2] = compound: CC1=CC(=NN1)NC2=CC(=NC(=N2)/C=C/C3=CC=CC=C3)N4CCN(CC4)C + Nc1nc2[nH]cc(CCc3ccc(C(=O)N[C@@H](CCC(=O)O)C(=O)O)cc3)c2c(=O)[nH]1 [Pemetrexed] (partner 0.2 µM)
Method in brief: as §1

[3] = compound: CC1=CC(=NN1)NC2=CC(=NC(=N2)/C=C/C3=CC=CC=C3)N4CCN(CC4)C
Method in brief: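 Lung cancer cell lines in 1536-well plates were exposed by pinning to five library-drug doses (not always all listed) √10 apart, following an overnight hold at 37 °C. MetaXpress counted Hoechst-stained nuclei from 4× images taken after 5 days without medium change. Viability is the median ratio of treated-well to vehicle-well nuclei across plates. Plates required control CV below 25% and at least one doubling.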

| Cell Line | relative viability (Bortezomib + Dasatinib; first compound 0.0002 µM) | relative viability (Bortezomib + Dasatinib; first compound 0.000632 µM) | relative viability (Bortezomib + Dasatinib; first compound 0.002 µM) | relative viability (Bortezomib + Dasatinib; first compound 0.006325 µM) | relative viability (Bortezomib + Dasatinib; first compound 0.02 µM) | relative viability ([1]; first compound 0.08 µM) | relative viability ([1]; first compound 0.253 µM) | relative viability ([1]; first compound 0.8 µM) | relative viability ([1]; first compound 2.53 µM) | relative viability ([1]; first compound 8 µM) | relative viability ([2]; first compound 0.08 µM) | relative viability ([2]; first compound 0.253 µM) | relative viability ([2]; first compound 0.8 µM) | relative viability ([2]; first compound 2.53 µM) | relative viability ([2]; first compound 8 µM) | relative viability ([3]; 0.08 µM) | relative viability ([3]; 0.253 µM) | relative viability ([3]; 0.8 µM) | relative viability ([3]; 2.53 µM) | relative viability ([3]; 8 µM) |
| --- | --- | --- | --- | --- | --- | --- | --- | --- | --- | --- | --- | --- | --- | --- | --- | --- | --- | --- | --- | --- |
| NCI-H1651 | 0.387 | 0.442 | 0.153 | 0.105 | 0.0988 | 0.525 | 0.536 | 0.496 | 0.462 | 0.266 | 0.39 | 0.58 | 0.571 | 0.518 | 0.223 | 1.03 | 0.992 | 0.939 | 0.712 | 0.288 |
| NCI-H1666 | 0.759 | 0.845 | 0.837 | 0.329 | 0.326 | 0.684 | 0.621 | 0.567 | 0.638 | 0.604 | 0.735 | 0.914 | 0.839 | 0.846 | 0.792 | 0.973 | 0.894 | 1.09 | 0.847 | 0.594 |
| NCI-H1734 | 0.469 | 0.45 | 0.516 | 0.112 | 0.109 | 0.34 | 0.278 | 0.313 | 0.249 | 0.13 | 0.409 | 0.384 | 0.409 | 0.238 | 0.199 | 0.939 | 0.913 | 0.799 | 0.328 | 0.155 |
| NCI-H1755 | 0.449 | 0.326 | 0.418 | 0.176 | 0.196 | 0.413 | 0.433 | 0.466 | 0.382 | 0.325 | 0.428 | 0.381 | 0.462 | 0.32 | 0.294 | 1.03 | 1.05 | 1.02 | 0.722 | 0.443 |
| NCI-H1792 | 0.722 | 0.59 | 0.504 | 0.759 | 0.443 | 0.649 | 0.751 | 0.684 | 0.559 | 0.155 | 0.624 | 0.888 | 0.722 | 0.0892 | 0.0324 | 0.957 | 0.934 | 0.813 | 0.338 | 0.0683 |
| NCI-H1793 | 0.35 | 0.324 | 0.381 | 0.361 | 0.168 | 0.325 | 0.374 | 0.273 | 0.157 | 0.144 | 0.698 | 1.03 | 0.644 | 0.137 | 0.0795 | 0.894 | 0.979 | 0.858 | 0.179 | 0.106 |
| NCI-H1915 | 0.234 | 0.329 | 0.315 | 0.128 | 0.0542 | 0.531 | 0.526 | 0.484 | 0.354 | 0.226 | 0.523 | 0.553 | 0.452 | 0.37 | 0.137 | 1 | 0.96 | 0.96 | 0.705 | 0.22 |
| NCI-H1944 | 0.225 | 0.212 | 0.222 | 0.214 | 0.137 | 0.373 | 0.341 | 0.338 | 0.264 | 0.189 | 0.566 | 0.652 | 0.611 | 0.365 | 0.312 | 0.987 | 0.98 | 0.953 | 0.657 | 0.465 |
| NCI-H1975 | 0.385 | 0.266 | 0.106 | 0.0685 | 0.084 | 0.533 | 0.754 | 0.593 | 0.285 | 0.111 | 0.281 | 0.281 | 0.286 | 0.187 | 0.137 | 0.954 | 0.956 | 0.984 | 0.458 | 0.152 |
| NCI-H1993 | 0.542 | 0.578 | 0.577 | 0.408 | 0.456 | 0.639 | 0.397 | 0.711 | 0.49 | 0.267 | 0.58 | 0.65 | 0.592 | 0.516 | 0.351 | 0.91 | 0.882 | 1.27 | 0.571 | 0.423 |
| NCI-H2009 | 0.291 | 0.254 | 0.244 | 0.0687 | 0.0717 | 0.191 | 0.18 | 0.216 | 0.129 | 0.102 | 1.09 | 1.03 | 0.982 | 0.909 | 0.313 | 0.995 | 0.95 | 0.997 | 0.646 | 0.243 |
| NCI-H2023 | 0.59 | 0.556 | 0.558 | 0.124 | 0.0683 | 0.406 | 0.451 | 0.301 | 0.111 | 0.0652 | 0.214 | 0.283 | 0.198 | 0.117 | 0.0581 | 1.01 | 1.02 | 0.859 | 0.108 | 0.0691 |
| NCI-H2085 | 0.31 | 0.253 | 0.207 | 0.209 | 0.241 | 0.473 | 0.463 | 0.459 | 0.345 | 0.266 | 0.994 | 0.982 | 0.952 | 0.325 | 0.258 | 1.04 | 1.05 | 0.95 | 0.695 | 0.323 |
| NCI-H2087 | 0.684 | 0.819 | 0.458 | 0.0422 | 0.037 | 0.213 | 0.17 | 0.236 | 0.164 | 0.123 | 0.63 | 0.652 | 0.652 | 0.566 | 0.162 | 0.959 | 0.761 | 1.09 | 0.277 | 0.13 |
